# Test results taken from EP0185020B1, “NI[…] PREPARATION THEREOF AND UTILIZATION THEREOF IN ANTICANCEROUS CHEMIOTHERAPY” (CENTRE NATIONAL DE LA RECHERCHE SCIENTIFIQUE (CNRS), priority 1984, dated 1985).
# Key:
# [1] = Solubility in solvents allowing intravenous administration; type: physicochemical; conditions: solvants autorisant l'administration par voie intraveineuse
# Description: Ont été administrés par voie intraveineuse (i.v.) dans la veine caudale, les mélanges A, A2 et B, B2 dans les proportions et aux doses utilisées dans a). La comparaison avec la CNCC pour cette voie d'administration est impossible en raison de l'insolubilité de ce composé dans les solvants autorisant l'administration par voie intraveineuse. Les résultats sont présentés sur le tableau III.
# [2] = test system: Gliome 26 (implanté en sous-cutané); conditions: Gliome 26 s.c.; 30 mg/kg I.P., jours 1,5,9; cited from earlier work
# [3] = test system: M 555 ovarienne (implanté en sous-cutané); conditions: M 555 ovarienne s.c.; 30 mg/kg I.P., jours 1,5,9; cited from earlier work
# [4] = test system: leucémie L 1210 greffée i.p.; assay: Antitumour activity on L1210 leukaemia grafted i.p. in mice, mixtures A1 A2 and B1 B2 (INSERM Unit 71, Example 12); type: in vivo, souris B6D2F1/IFFA CREDO; conditions: J1, J5, J9
# Description: Au jour J: 0, des souris mâles B6D2F1 âgées de trois mois reçoivent par voie intrapéritonéale 10^5 cellules de la souche leucémique L 1210. Les animaux sont répartis en lots de 8 à 10 animaux pour les groupes témoins et de 6 à 8 animaux pour les groupes traités. Aux jours J : 1, J : 5, J : 9, les animaux reçoivent par voie intrapéritonéale ou intraveineuse le traitement à différentes doses. La CNCC est administrée en suspension dans l'huile d'olive. Les produits selon l'invention sont administrés dans du sérum physiologique. La mortalité est enregistrée tous les jours. La médiane de survie des animaux traités et des animaux témoins a été déterminée. Les résultats sont considérés comme positifs lorsque l'index I = [formula] est supérieur à 125.
# La valeur ∞ signifie que 50 à 100% des animaux sont survivants au jour J : 90.
# L'activité cytostatique sur la leucémie L 1210 des produits selon l'invention a été évaluée chez des souris B6D2F1/IFFA CREDO d'après le protocole précédemment décrit.
# Ont été administrés par voie intrapéritonéale (i.p.) soit le mélange A, A2 dans les proportions suivantes A, (70%) et A2 (30%), soit le mélange B, B2 dans les mêmes proportions, soit la CNCC aux doses suivantes: 10 mg/kg, 20 mg/kg, 30 mg/kg, 40 mg/kg et 50 mg/kg. Les résultats sont présentés sur le tableau Il et appellent les commentaires suivants: • - très bonne efficacité du mélange A, A2 aux doses de 20 mg/kg, 30 mg/kg et 40 mg/kg et du mélange B, B2 aux doses de 20 mg/kg, 30 mg/kg, 40 mg/kg et 50 mg/kg. […] De plus, le nombre de survivants à 90 jours est plus grand chez les animaux ayant reçu les produits selon l'invention par rapport aux animaux ayant reçu la CNCC. […]
# [5] = test system: Carcinome du côlon (côlon 26) (implanté en sous-cutané); conditions: Carcinome du côlon (côlon 26) s.c.; 30 mg/kg I.P., jours 1,5,9; cited from earlier work
# [6] = test system: Fibrosarcome I.C.I.G. C1 (implanté en sous-cutané); design: key: N.S.: Non significatif; ∞: 50% en plus des animaux traités sont guéris; conditions: 30 mg/kg I.P., jours 1,5,9; cited from earlier work
# [7] = test system: Adénocarcinome mammaire TM2 (implanté en sous-cutané); conditions: 30 mg/kg I.P., jours 1,5,9; cited from earlier work
# [8] = test system: Leucémie L 1210 (greffée par voie i.c.); conditions: Leucémie L 1210 i.c.; 30 mg/kg I.P., jours 1,5,9; cited from earlier work
# [9] = test system: Carcinome pulmonaire de Lewis (implanté en sous-cutané); conditions: 30 mg/kg I.P., jours 1,5,9; cited from earlier work
# [10] = test system: Mélano-carcinome B 16 (implanté en sous-cutané); conditions: Mélano-carcinome B 16 s.c.; 30 mg/kg I.P., jours 1,5,9; cited from earlier work
smiles,measurement,setting,value
O=NN(CCCl)C(=O)NCCSSCCNC(=O)N(CCCl)N=O [CNCC],"solubilité, in words",[1],insolubilité
same,Augmentation de la durée de survie (I.L.S.: T/C×100),[2],200
same,Augmentation de la durée de survie (I.L.S.: T/C×100),[3],>254
same,Nombre de survivants à 90 jours,[4]; 10 mg/kg,0/6
same,T/C × 100,[4]; 10 mg/kg,250
same,Nombre de survivants à 90 jours,[4]; 20 mg/kg,6/6
same,T/C × 100,[4]; 20 mg/kg,∞ (50 à 100% des animaux survivants à 90 jours)
same,Nombre de survivants à 90 jours,[4]; 30 mg/kg,6/6
same,T/C × 100,[4]; 30 mg/kg,∞ (50 à 100% des animaux survivants à 90 jours)
same,Nombre de survivants à 90 jours,[4]; 40 mg/kg,3/6
same,T/C × 100,[4]; 40 mg/kg,∞ (50 à 100% des animaux survivants à 90 jours)
same,Nombre de survivants à 90 jours,[4]; 50 mg/kg,0/6
same,T/C × 100,[4]; 50 mg/kg,125
same,Augmentation de la durée de survie (I.L.S.: T/C×100),[5],∞ (50% en plus des animaux traités sont guéris)
same,Augmentation de la durée de survie (I.L.S.: T/C×100),[6],N.S.
same,Augmentation de la durée de survie (I.L.S.: T/C×100),[7],185
same,Augmentation de la durée de survie (I.L.S.: T/C×100),[8],∞ (50% en plus des animaux traités sont guéris)
same,Augmentation de la durée de survie (I.L.S.: T/C×100),[9],∞ (50% en plus des animaux traités sont guéris)
same,Augmentation de la durée de survie (I.L.S.: T/C×100),[10],200
